Experimental data: US12544365B2, “Pharmaceutical combination of an EP4 antagonist and immune checkpoint inhibitors for the treatment of tumours” (ROTTAPHARM BIOTECH S.R.L., priority 2019, dated 2026)

Experiments:
[1] = Stability of Form A at different humidity values and temperatures; assay type: physicochemical
From the text: The stability of the Form A (named also as Compound 1) of the sodium salt of R)-4-(1-(6-(4-(trifluoromethyl)benzyl)-6-azaspiro[2.5]octane-5-carboxamido)cyclopropyl)benzoic acid at different humidity values and temperatures was investigated.

[2] = test system: PGE2 effect on TNF-α release in rat whole blood culture; experiment: In vitro TNF-α release induced by LPS and modulated by PGE2, rat whole blood culture; assay type: cell-based; conditions: 0.1 μg/ml LPS + fixed PGE2 concentration giving about 80% inhibition, 4 hours, read-out: IC50, reversal of PGE2 effect on TNF-α release
Method: Male Wistar Han rats (250-300 g b.w., Charles River, Italy) were housed six per cage in a temperature-controlled room, set to maintain temperature within the range of 20° C. #2° C. and relative humidity within the range of 55%±10 and with a 12-h/12-h light/dark cycle. Throughout the study animals had free access to standard laboratory chow (Teklad rodent diet 2018, Harlan Laboratories, S. Pietro al Natisone, UD, Italy) and drinking water. Care and handling of the animals were in accordance with the guidelines of the Local Government and the regulations of the European Community. Authorization for experimental procedures was granted by the Italian Ministry of Health. The day of the experiments animals were anaesthetized with 2.5-3% isoflurane in O2 inside an induction chamber and blood was drawn from the abdominal aorta. Whole blood samples were collected in tubes containing 0.1-0.2U/ml heparin. […]
In samples representing basal release of the cytokine, LPS was substituted by the same volume of sterile PBS. […] The levels of TNF-α release in rat whole blood culture were evaluated using the Rat TNFalpha ELISA kit (Diaclone, France). Compared to the reference standard curve, TNF-α levels in samples were expressed as concentration (pg/ml).

rat EP4R = molecular target: T1, rat EP4R (Rattus norvegicus, UniProt P43114); experiment: Ex vivo TNF-α release induced by LPS in whole blood of orally dosed rats: PGE2 IC50 vs dose and time
T1 construct: whole blood culture samples from animals treated orally with vehicle or Compound 1; from tissue; host or cells: whole blood of male Wistar Han rats
Method: Male Wistar Han rats (250-300 g b.w., Charles River, Italy) were housed six per cage in a temperature controlled room, set to maintain temperature within the range of 20° C. ±2° C. and relative humidity within the range of 55%+10 and with a 12-h/12-h light/dark cycle. Throughout the study animals had free access to standard laboratory chow (Teklad rodent diet 2018, Harlan Laboratories, S. Pietro al Natisone, UD, Italy) and drinking water. Care and handling of the animals were in accordance with the guidelines of the Local Government and the regulations of the European Community.
Authorization for experimental procedures was granted by the Italian Ministry of Health. […]
In details the day of the experiments, animals were anaesthetized with 2.5-3% isoflurane in O2 inside an induction chamber and blood (in average 7 ml/rat) was drawn from the abdominal aorta. […] Compared to the reference standard curve, TNF-α levels in samples were expressed as concentration (pg/ml).
For each animal, percent of inhibition by different PGE2 concentrations with respect to control sample, and the corresponding IC50 (or the half-maximal inhibitory concentration in a range 0-100% inhibition) were calculated by linear regression analysis. Moreover, in each treatment group either the mean TNF-α levels and the mean % inhibition by PGE2 were calculated. […]

[3] = test system: Treg differentiation of human CD4+ naïve T cells; experiment: Ex vivo human T regulatory cells differentiation (flow cytometry); assay type: cell-based; conditions: 0.1 μM compound, 0.03 μM PGE2, 144 hours
Method: Peripheral blood mononuclear cells (PBMC) were isolated from healthy volunteers using density gradient centrifugation and CD4+naïve T cells were enriched from PBMCs using human naïve CD4+ T cell isolation kit (Miltenyi Biotech). Isolated CD4+ T cells were maintained in RPMI medium and differentiated toward a Treg phenotype using two interleukins, namely, rIL23 and rIL-1B, both at a concentration of 10 ng/ml and co-stimulated with PGE2 at 30 nM concentration over a 144 hours incubation period.
At the end of incubation cells were stained with fluorescence conjugated antibodies specific for CD3, CD4, FoxP3, CD25, IL35 and CRTH2 (all from BD Bioscience). Finally, the number of Treg cells was determined by flow cytometry and the events were measured by Fluorescence Activated Cell Sorter (FACS; BD Bioscience) and analyzed with dedicated software.

PK experiments in rat = conditions: in vivo, po
[4] = Physical and chemical stability testing of solid forms (mechanical, thermal stress)

T1 sequence (P43114 whole entry): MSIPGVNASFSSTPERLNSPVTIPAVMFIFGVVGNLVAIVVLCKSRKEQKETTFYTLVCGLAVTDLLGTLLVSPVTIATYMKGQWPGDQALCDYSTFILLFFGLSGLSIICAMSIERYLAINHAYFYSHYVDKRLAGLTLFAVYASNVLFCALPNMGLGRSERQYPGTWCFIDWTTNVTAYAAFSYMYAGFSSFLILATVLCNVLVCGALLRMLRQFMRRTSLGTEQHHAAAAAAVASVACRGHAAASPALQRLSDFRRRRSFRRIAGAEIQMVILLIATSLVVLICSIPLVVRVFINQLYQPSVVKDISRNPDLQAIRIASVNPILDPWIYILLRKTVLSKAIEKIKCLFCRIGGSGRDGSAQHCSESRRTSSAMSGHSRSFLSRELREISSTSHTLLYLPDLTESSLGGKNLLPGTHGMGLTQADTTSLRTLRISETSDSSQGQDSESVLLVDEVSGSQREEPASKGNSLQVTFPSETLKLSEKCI

Structure (SMILES): O=C([O-])c1ccc(C2(NC(=O)[C@H]3CC4(CCN3Cc3ccc(C(F)(F)F)cc3)CC4)CC2)cc1.[Na+] [Compound 1, sodium (R)-4-(1-(6-(4-(trifluoromethyl)benzyl)-6-azaspiro[2.5]octane-5-carboxamido)cyclopropyl)benzoate]
- Stability ([1]; Powder, 50% RH −30° C.): Stable >24 hours
- Stability ([1]; Powder, 80° C.): Stable >5 days
- Stability ([1]; Powder, RT): Stable >1 month
- Stability ([1]; Sealed foil/Poly bag, 70% RH −40° C.): Stable >3 months
- IC50 [2]: 2.3 µM
- reversion of PGE2 TNF-α release inhibition, time course (rat EP4R; 10 mg/kg oral, blood sampling 1-3-24 hours): still evident also 24 hours after Compound 1 administration
- minimum effective dose (rat EP4R; oral, rat, reversion of PGE2 inhibition of TNF-α release): 10 mg/kg
- Treg cell differentiation [3]: significantly decreased
- Tmax (PK experiments in rat): 1 h
- thermodynamic stability of the form [4]: most thermodynamically stable anhydrous form
- physical stability (conversion to amorphous form) ([4]; mechanical or thermal stress): more stable towards amorphization by thermal stress
